Data: paper PMC4919066 (PLoS Pathogens, 2016)
Structures can show the parent of a compound that is named as a salt.

Assays:
MCMV = tested on: MCMV
Protocol: For infection experiments BALB/c mice, 4–6 weeks old, were purchased from Harlan Laboratories (Indianapolis, Indiana). The Animal Care and Use Committee of Johns Hopkins University approved the experimental procedures. […] Mice were infected intraperitoneally with 10^6 PFU/mice (0.1 mL in 0.8% saline). Control mice received 0.1 ml of saline intraperitoneally. […] GCV was administered intraperitoneally twice daily. […] Control and infected mice received equivalent volumes of saline. Mice were sacrificed at day 14 after infection. Blood samples were collected by cardiac puncture. Salivary glands and liver were harvested and stored at -80°C. Organs were homogenized in DMEM with 4% FBS at a final concentration of 100 mg/mL. Two million MEFs were seeded into 24-well plates. From each sample, 5% of the salivary gland homogenate or 10% of the liver homogenate was used for infection of MEFs in triplicates. Plaques were counted after three days. Whole blood viral load was measured at day 14 by real-time PCR of the glycoprotein B (gB) gene. DNA was extracted using the DNA blood mini kit (Qiagen, Georgetown, MD).

HCMV = assay: Virus entry, pp65 immunofluorescence assay; format: cell-based, Human Cytomegalovirus; conditions: emetine 75 nM, GCV 10 μM, CpG 2006 10 μM, added 24 h prior to infection
HSV1- KOS/Dlux/oriS = assay: HSV-1 luciferase assay in HFFs; format: cell-based, herpesvirus 1 (HSV-1); conditions: Human alphaherpesvirus 1, read-out: Mean EC50 ± SD
Protocol: The pp28-luciferase HCMV Towne and a GCV-resistant pp28-luciferase were used. The recombinant viruses express luciferase under the control of the late CMV gene promoter, pp28. Luciferase expression is activated 48–72 hours post infection (hpi). The recombinant viruses provide a highly-sensitive reporter system which correlates with plaque reduction assay. The Towne HCMV strain (ATCC VR-977) was used for plaque reduction, quantitative reverse transcriptase PCR (qRT-PCR), and immunoprecipitation assays. Human herpes virus strains were: luciferase HSV1- KOS/Dlux/oriS [52] and clinical isolates of HSV2. The clinical isolates were provided by the clinical microbiology laboratory with no identifiers that can link to a specific subject. Murid Herpesvirus (MCMV: ATCC VR-1399) was used for infection of mouse embryonic fibroblasts (MEFs) and mice.
Human Foreskin Fibroblasts (HFFs) passage 12–16 (ATCC, CRL-2088) and mouse embryonic fibroblasts (MEFs) passage 9–14 (ATCC, CRL-1658) were grown in Dulbecco's Modified Eagle Medium (DMEM) containing 10% fetal bovine serum (FBS) (Gibco, Carlsbad, CA) in a 5% CO2 incubator at 37°C. […] Luciferase activity was measured 72 h following second cycle infection. […] After incubation at 37°C for 10 days (for HCMV), 3 days for MCMV or 2 days (for HSV), the overlay was removed and plaques were counted after crystal violet staining.

MDM2-IE2 = assay: Co-immunoprecipitation MDM2-IE2 in transfected HEK293 cells; format: cell-based; conditions: IE1/2 transfection, emetine 75 nM or GCV 5 μM for 4 h
Protocol: HEK-293 cells seeded into 10 cm petri dishes were transfected with HCMV plasmid encoding IE1 and IE2 (pRL45), using Lipofectamine 2000 in serum free medium. After 6 h, 10% FBS containing media was added along with 10 μM of MG132. […] Cells were then harvested to prepare lysates for IP.
Non-infected, infected or emetine-treated HFFs were treated with MG132 (10 μM) for 12h. Cells were harvested after 24 hpi and lysed with IP buffer containing 150 mM NaCl, 50mM Tris pH 7.5, 2 mM EDTA, 0.5% TritonX-100 and 0.5% NP-40-40. 1 mg of lysate was precleared with bead slurry for 30 min. The precleared lysates were incubated with anti-MDM2 (2 μg) antibody overnight. The antibody complexes were isolated using protein A/G beads (Santa Cruz), washed three times with 50% IP buffer. The immunoprecipitate-protein A/G beads were boiled in SDS sample buffer, and the supernatant was analyzed on SDS-PAGE gels after immunoblotting as described previously. 1% of the cell lysate used for IP was loaded on gels as ‘Input’. Confirmatory reverse IPs were performed as described in each experiment. Isotype control antibodies included: rabbit IgG polyclonal, mouse IgG2a kappa and mouse IgG2b kappa monoclonal (Abcam). Mouse monoclonal RPS19 antibody (Abcam) served as an additional negative control for the IPs. Densitometry analysis was performed to determine relative ratio of immunoprecipitated protein to its input level.

[1] = tested on: HCMV proteins IE1/2, UL44 and pp65; assay: Western blot of viral proteins; format: cell-based, Human Cytomegalovirus; conditions: emetine 75 nM, 72 hpi
Description: Cell lysates were quantified for protein content using bicinchoninic acid (BCA) protein assay kit (Pierce Chemical, Rockford, IL). Equivalent amount of proteins were used for Western blot analysis as described previously (11). Protein bands were visualized by chemiluminescence using Western Blotting Luminol Reagent (Santa Cruz Biotechnology, Santa Cruz, CA). The following antibodies were used for detection of HCMV proteins: mouse anti-IE1 and IE2, (MAb810); mouse anti-UL44 (Santa Cruz biotechnology); mouse monoclonal anti-pp65 (Vector laboratories, Burlingame, CA); mouse monoclonal anti-β-actin antibody (Millipore, Billerica, MA); rabbit polyclonal anti-RPS14 and mouse monoclonal anti-MDM2 (AbCam, Cambridge, UK), mouse monoclonal anti-p53 (Santa Cruz); horseradish peroxidase (HRP)-conjugated goat anti-rabbit IgG (Cell Signaling); and HRP-conjugated sheep anti-mouse IgG, (GE Healthcare, Waukesha, WI). For detection of co-immunoprecipitated proteins, protein A-HRP conjugate (Cell Signaling Technologies, Beverly, MA) was used as secondary antibody to eliminate the interfering IgG bands.

[2] = all treatment regimens (0.1 or 1 mg/kg oral, from 24 or 72 hpi), day 14

CC[C@H]1CN2CCc3cc(OC)c(OC)cc3[C@@H]2C[C@@H]1C[C@H]1NCCc2cc(OC)c(OC)cc21 [emetine, emetine dihydrochloride hydrate]
decrease in MCMV DNA copy number in blood compared to infected control (MCMV; 0.1 or 1 mg/kg orally every three days from 24 h or 72 h after infection, day 14): 2 to 4 log10 | reduction of viral PFUs in liver (MCMV; [2]): 3–6 fold | reduction of viral PFUs in salivary gland (MCMV; [2]): 4–6 fold | tolerability in mouse CMV model (MCMV; mouse): well-tolerated | inhibition of viral entry (HCMV): neither emetine nor GCV inhibited viral entry | EC50 (HSV1- KOS/Dlux/oriS): 56 nM | interaction between MDM2 and IE2 (MDM2-IE2): significantly decreased | expression of HCMV proteins IE1/2, UL44 and pp65 [1]: significantly reduced
